# Measured values from US5776903A, “Peptide derivatives usable as zinc endopeptidase 24-15 inhibitors” (Commissariat A l'Energie Atomique, priority 1995, dated 1998).
# Key:
# endopeptidase 24-16 = endopeptidase 24-16 (Homo sapiens, UniProt Q9BYT8); test: Inhibition of neurotensin degradation by purified endopeptidase 24-16 (HPLC), inhibition constant Ki; assay type: biochemical; conditions: neurotensin 20 μmole/l, 1 hour at 30° C., tris-HCl pH 7.5
# Protocol: This example studies the inhibiting effect of the peptides of the invention with respect to endopeptidase 24-16.
# To this end, incubation takes place for 1 hour at 30° C. of 2 nmole (20 μmole/l) of neurotensin, which is a known endopeptidase 24-16 substrate with 8 μg of endopeptidase 24-16 purified in a final volume of 100 μl of tris-HCl buffer, 50 mM, pH 7.5, in the absence of peptide (control) or in the presence of the peptide tested at concentrations from 10^-11 to 10^-7 mole/l. After 1 hour of incubation analysis takes place of the solutions by HPLC and the inhibition constant Ki of the tested peptide is determined.
# endopeptidase 24-15 = endopeptidase 24-15 (Rattus norvegicus, UniProt P24155); test: Inhibition of neurotensin degradation by purified endopeptidase 24-15 (HPLC), inhibition constant Ki; conditions: for SELECTIVITY (ratio Ki24-16 /Ki24-15): selectivity relative to endopeptidase 24-16; for Ki expected for one of the diastereoisomers of the mixture: extrapolated from Ki of the mixture of 4 diastereoisomers; for affinity difference / power factor relative to Cpp-Ala-Pro-Phe-pAb: for the expected single diastereoisomer versus known inhibitor (Ki 7 nM)
# Protocol: Incubation takes place for 1 hour at 37° C. of 2 nmole (20 μmole/l) of neurotensin, which is a known endopeptidase 24-15 substrate, with 7 μg of purified endopeptidase 24-15 in a final volume of 100 μl of tris-HCl buffer, 50 nM, pH 7.5, in the absence of an inhibitor (control) or in the presence of the peptide tested at concentrations from 10^-11 to 10^-7 mole/l. After 1 hour incubation analysis takes place of the solutions by HPLC. On the basis of this analysis the inhibition constant Ki of the tested peptide is determined.
# [1] = target: endopeptidase 24-15 of the rat (Rattus norvegicus, UniProt P24155); conditions: as described by Dando et al; read-out: inhibition constant Ki with respect to endopeptidase 24-15 of the rat; cited from earlier work
# Chain of endopeptidase 24-15 of the rat (P24155 whole entry): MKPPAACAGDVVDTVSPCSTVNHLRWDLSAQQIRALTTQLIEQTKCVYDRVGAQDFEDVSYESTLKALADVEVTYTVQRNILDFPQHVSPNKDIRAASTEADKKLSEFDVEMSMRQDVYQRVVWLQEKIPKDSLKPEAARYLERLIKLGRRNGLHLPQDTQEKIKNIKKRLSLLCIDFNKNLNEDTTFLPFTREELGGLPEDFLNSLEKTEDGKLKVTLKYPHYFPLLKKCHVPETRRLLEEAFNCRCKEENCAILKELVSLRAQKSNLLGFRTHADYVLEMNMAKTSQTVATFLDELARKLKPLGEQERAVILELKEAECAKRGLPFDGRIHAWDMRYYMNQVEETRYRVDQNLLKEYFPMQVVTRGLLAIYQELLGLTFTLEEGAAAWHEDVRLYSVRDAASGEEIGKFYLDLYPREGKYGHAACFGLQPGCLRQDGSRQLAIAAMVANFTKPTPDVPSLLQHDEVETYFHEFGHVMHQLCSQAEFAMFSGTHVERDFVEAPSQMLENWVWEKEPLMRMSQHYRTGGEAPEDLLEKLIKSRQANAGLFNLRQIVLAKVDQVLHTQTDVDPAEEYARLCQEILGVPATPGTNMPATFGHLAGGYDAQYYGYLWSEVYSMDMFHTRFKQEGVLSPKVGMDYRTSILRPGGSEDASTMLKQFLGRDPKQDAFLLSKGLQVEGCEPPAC
# Chain of endopeptidase 24-16 (Q9BYT8 38-704): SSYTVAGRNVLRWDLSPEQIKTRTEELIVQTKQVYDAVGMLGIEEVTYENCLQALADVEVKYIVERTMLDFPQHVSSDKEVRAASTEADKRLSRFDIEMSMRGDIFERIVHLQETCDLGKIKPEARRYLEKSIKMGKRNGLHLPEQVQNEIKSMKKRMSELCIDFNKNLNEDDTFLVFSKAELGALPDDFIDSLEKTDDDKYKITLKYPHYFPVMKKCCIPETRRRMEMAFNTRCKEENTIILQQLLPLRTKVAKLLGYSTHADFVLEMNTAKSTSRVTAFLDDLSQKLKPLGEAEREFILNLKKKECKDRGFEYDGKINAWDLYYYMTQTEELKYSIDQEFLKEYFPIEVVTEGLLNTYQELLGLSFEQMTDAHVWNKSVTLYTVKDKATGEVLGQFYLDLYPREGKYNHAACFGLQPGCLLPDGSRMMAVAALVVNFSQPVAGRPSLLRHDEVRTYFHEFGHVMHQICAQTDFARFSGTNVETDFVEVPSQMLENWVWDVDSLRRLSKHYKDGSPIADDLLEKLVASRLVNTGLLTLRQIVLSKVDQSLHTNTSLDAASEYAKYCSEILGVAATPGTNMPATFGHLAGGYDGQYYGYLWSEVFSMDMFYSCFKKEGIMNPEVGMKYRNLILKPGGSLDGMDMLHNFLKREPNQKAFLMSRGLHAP
# Chain of endopeptidase 24-15 (P24155 whole entry): as the sequence (P24155 whole entry) above
Compound,Ki (endopeptidase 24-16),Ki (endopeptidase 24-15),SELECTIVITY (ratio Ki24-16 /Ki24-15) (endopeptidase 24-15),Ki expected for one of the diastereoisomers of the mixture (endopeptidase 24-15),affinity difference / power factor relative to Cpp-Ala-Pro-Phe-pAb (endopeptidase 24-15),Ki [1]
"CCCC[C@H](NC(=O)[C@H](CCCCN)NC(=O)C(C)CP(=O)(O)C(Cc1ccccc1)NC(=O)OCc1ccccc1)C(=O)O (mixture of isomers) [compound 23, Z--Phe .PSI. (PO2 CH2)Ala--Lys--Nle]",162 nM,0.63 nM,257,,,
"CC(CP(=O)(O)C(Cc1ccccc1)NC(=O)OCc1ccccc1)C(=O)N[C@@H](CCCCN)C(=O)N[C@@H](C)C(=O)O (mixture of isomers) [compound 24, Z--Phe .PSI. (PO2 CH2)Ala--Lys--Ala]",436 nM,0.83 nM,525,,,
"CC(CP(=O)(O)C(Cc1ccccc1)NC(=O)OCc1ccccc1)C(=O)N[C@@H](CCCCN)C(=O)N[C@@H](Cc1ccccc1)C(=O)O (mixture of isomers) [compound 25, Z--Phe .PSI. (PO2 CH2)Ala--Lys--Phe]",1650 nM,1 nM,1652,,,
"CC(C)C[C@H](NC(=O)[C@H](CCCCN)NC(=O)C(C)CP(=O)(O)C(Cc1ccccc1)NC(=O)OCc1ccccc1)C(=O)O (mixture of isomers) [compound 26, Z--Phe .PSI. (PO2 CH2)Ala--Lys--Leu]",893 nM,1.82 nM,491,,,
"CC[C@H](C)[C@H](NC(=O)[C@H](CCCCN)NC(=O)C(C)CP(=O)(O)C(Cc1ccccc1)NC(=O)OCc1ccccc1)C(=O)O (mixture of isomers) [compound 27, Z--Phe .PSI. (PO2 CH2)Ala--Lys--Ile]",1260 nM,1.94 nM,652,,,
"CSCC[C@H](NC(=O)[C@H](CCCNC(=N)N)NC(=O)C(C)CP(=O)(O)C(Cc1ccccc1)NC(=O)OCc1ccccc1)C(=O)O (mixture of isomers) [compound 42, Z--Phe .PSI. (PO2 CH2)Ala--Arg--Met]",88 nM,0.067 nM,1312,approximately 15 pM,440,
"CC(CP(=O)(O)C(Cc1ccccc1)NC(=O)OCc1ccccc1)C(=O)N[C@@H](CCCNC(=N)N)C(=O)N[C@@H](Cc1ccccc1)C(=O)O (mixture of isomers) [compound 43, Z--Phe .PSI. (PO2 CH2)Ala--Arg--Phe]",527 nM,0.158 nM,3335,approximately 40 pM,approximately 175,
"CC(C)CC(CP(=O)(O)C(Cc1ccccc1)NC(=O)OCc1ccccc1)C(=O)N[C@@H](CCCNC(=N)N)C(=O)N[C@@H](Cc1ccccc1)C(=O)O (mixture of isomers) [compound 44, Z--Phe .PSI. (PO2 CH2)Leu--Arg--Phe]",2290 nM,14 nM,164,,,
Cpp-Ala-Pro-Phe-pAb,,,,,,7 nM
